Patent US20240224953A1 (Barlaa B.V., priority 2021, published 2024)
Where two headings read alike, the source gives them in different places.

How the values were obtained:
[1] = test system: whiteleg shrimps (Litopenaeus vannamei)
Experimental: Water quality parameters, including salinity, dissolved oxygen, pH and total ammonia nitrogen (TAN) were monitored regularly in both control and treated ponds. The growth rate of the shrimps was monitored regularly. Total number was counted and mean body weight of shrimp was measured. Based on recording the weight of shrimp and counting the number of shrimps, weight gain, feed conversion ratio (FCR) and survival were calculated.

whiteleg shrimps [2] = test system: whiteleg shrimps
Source text: In […] further experiments were done in Gujarat-India on whiteleg shrimps.

whiteleg shrimp = test system: whiteleg shrimp
Source text: Trials are done in Northern part, Central part and Southern part in Vietnam, 2020-2021.

[3] = test system: Tiger shrimps (Penaeus monodon); conditions: three ponds, applied after each change of water every 5 days
Experimental: Tiger shrimps (Penaeus monodon), also named giant tiger prawn, asian tiger prawn or black tiger shrimp, is one of the most popular cultured shrimp species in the world.
A small scale trial was carried out in 2019 in Chittagong-Bangladesh in three ponds of +2.5 ha.

Pangasius hypophthalmus = experiment: Experiment 7C: pond trial on Pangasius in Bangladesh; type: in vivo; conditions: overall results of the 8 ponds
Source text: Pangas belonging to the genus of medium-large catfishes, is a relatively new and fast-growing fish species that has great potential for production and export growth in Bangladesh. Polyculture of pangasius (P. hypophthalmus) with carps is the existing culture practice along with monoculture being practiced by many households in Bangladesh.
Trials have been done in 2019 in Mymensingh region on 4 ponds with an average of 1,4 ha and an average depth of 1.5 m in the dry season and 2 m. in the rainy season (May to November). For feeding standard commercial pelleted feeds were used.

trypsin gene = conditions: hepatopancreas, after 56 days, versus control, FIG. 2
Experimental: At the end of the grow-out period, shrimp were sampled for the growth and feed utilisation metrics. Water quality parameters were measured three times daily. At the end of the trial, shrimps were assessed for the growth performance as described below. Shrimp from each treatment group were examined and the hepato-pancreas removed carefully from 10 individual animals and processed as described below.
For RNA extraction, hepatopancreases were extracted by using trizol reagent (Invitrogen, USA). Briefly, 1 ml of trizol reagent were added into 50-100 mg of tissue samples. then, the samples were homogenized at 3,500 rpm for 1 min by using Micro Smash MS-100R (TOMY, Japan). After incubated sample at RT for 5 min, 200 μl of chloroform were added and mixed vigorous. The samples were centrifuged at 12,000 rpm at 4° C. for 15 min. after collected supernatant into new 1.5 ml tube, 1 volume of isopropanol were added and incubated at −20° C. for 2 h or O/N. Next, RNA pellets were collected by centrifuged at 12,000 rpm at 4° C. for 15 min. then, the pellets were washed with 500 μl of 75% ethanol and dried pellet at 65° C. Lastly, 30 μl of RNase free water was added for dissolved RNA pellet. RNA concentration was measured by using nanodrop spectrophotometer (Thermo Fisher Scientific, USA).

whiteleg shrimps [4] = test system: whiteleg shrimps; remark: listed apart in the source
whiteleg shrimps [5] = conditions: applied once or twice a day, 6 ponds
[6] = test system: Pacific Whiteleg shrimp (Litopenaeus vannamei)
Experimental: An 8-week growth trial study on Pacific Whiteleg shrimp (Litopenaeus vannamei) (1.0 g/shrimp) in duplicate was conducted in a 3,200 m2 earthen pond (100,000 shrimps per 1,600 m2) at the GAP certified private shrimp farm, Nakhon Pathom province, Thailand. […] The pond size was 2 Rai (1 Rai is 1,600 m^2). Stocking density is 100,000 shrimps/1 Rai.
Shrimp were fed by automatic feeder four times a day according to the farming standard. […] The bespoke shrimp feed specification was Crude Protein 38%, Crude Fat 7%, and diet pellet sizes of 1.5 mm; 2.0 mm; 2.5 mm that were assigned across the trial period to optimise maximum intake.

α-amylase gene = conditions: hepatopancreas, after 56 days, versus control, FIG. 2
Experimental: For RNA extraction, hepatopancreases were extracted by using trizol reagent (Invitrogen, USA). Briefly, 1 ml of trizol reagent were added into 50-100 mg of tissue samples. then, the samples were homogenized at 3,500 rpm for 1 min by using Micro Smash MS-100R (TOMY, Japan). After incubated sample at RT for 5 min, 200 μl of chloroform were added and mixed vigorous. The samples were centrifuged at 12,000 rpm at 4° C. for 15 min. after collected supernatant into new 1.5 ml tube, 1 volume of isopropanol were added and incubated at −20° C. for 2 h or O/N. Next, RNA pellets were collected by centrifuged at 12,000 rpm at 4° C. for 15 min. then, the pellets were washed with 500 μl of 75% ethanol and dried pellet at 65° C. Lastly, 30 μl of RNase free water was added for dissolved RNA pellet. RNA concentration was measured by using nanodrop spectrophotometer (Thermo Fisher Scientific, USA). […]
Real-time PCR was used to detected growth genes in shrimp.
Reaction mixture for real-time PCR was composed of 1 μl of 100 cDNA, 5 μl of 2× qPCRBIO SyGreen mix, forward and reverse primer at final concentration 0.2 μM and adjusted volume up to 10 μl by nuclease free water. […] The relative fold gene expression level was calculated by using the formula below: […]

[7] = all testing locations in Vietnam, 2020-2021

Substance: silicic acid [bioavailable silicic acid compound]
- average weight gain of the shrimps compared to control pond ([1]; first experiments, 2017, brackish ponds, Gujarat): 26%
- increase (average weight gain) compared to control ([1]; second trial): 17.5%
- average yield increase of shrimps (whiteleg shrimps [2]; 8 ponds, 1.5 liters of 2.5% product every 15 days, compared to control): 18.3%
- food conversion rate (FCR) (whiteleg shrimps [2]; average of treated ponds (control ponds 1.52)): 1.45
- environment, growth, survival, and energy efficiency of shrimp production (whiteleg shrimp; Central Vietnam): remarkably good results
- higher yields (average) (whiteleg shrimp; [7]): 18.7%
- larger shrimps (average) (whiteleg shrimp; [7]): 14%
- overall yield increase (compared to control) [3]: 18.4%
- increase of overall yield (Pangasius hypophthalmus; both treatments pooled): 16.6%
- overall yield (Pangasius hypophthalmus; both treatments pooled (from 11.400 kg/ha/year)): 13.300 kg/ha/year
- trypsin gene expression relative to housekeeping gene (trypsin gene): down regulation
- average yield increase of shrimps (whiteleg shrimps [4]; 4 ponds, application every 3 days, brackish water): 24.27%
- feed conversion rate (FCR) (whiteleg shrimps [4]; average of treated ponds (control ponds 1.5)): 1.37
- overall increase of the yield (whiteleg shrimps [5]): 19%
- average (mean) weight of shrimp at end of trial ([6]; 8-weeks growth trial, FIG. 1 (control 9.48)): 12.49 g
- Apparent net protein utilization (%) ([6]; 8 weeks, with silicic acid): 36.4 ± 1.4 ^A %
- Average daily gain ([6]; 8 weeks, with silicic acid): 0.12 ± 0.02 g/day
- Feed conversion ratio ([6]; 8 weeks, with silicic acid): 1.18 ± 0.05 ^A
- Final weight (g/shrimp) ([6]; 8 weeks, with silicic acid): 12.49 ± 2.46 g/shrimp
- Specific growth rate (%/day) ([6]; 8 weeks, with silicic acid): 3.21 ± 0.20 ^A %/day
- Survival rate (%) ([6]; 8 weeks, with silicic acid): 69.8 ± 4.5 ^A %
- Total biomass (kg of harvested shrimp) ([6]; 8 weeks, with silicic acid): 1,047 ± 208.25 ^A kg
- shrimp performance under pond rearing conditions ([6]; exposed for 8 weeks): significantly better
- α-amylase gene expression relative to housekeeping gene (α-amylase gene): down regulation
